# Reference: ChEMBL document CHEMBL1201862, “PubChem BioAssay data set” (2004)
# Active and inactive are the calls of the source.
# How the values were obtained:
# [1] = THP-1 cell cytotoxicity, dose response, cytotoxicity control for Vif-APOBEC3G degradation inhibitor project, THP-1 cells (AID 1117359); type: functional; settings: Human immunodeficiency virus 1, THP-1
# [2] = NIH:OVCAR-3 ovarian cancer cell cytotoxicity, dose response, PAX8 inhibitor project, plate reader, dry powder samples (AID 743044); type: functional, cell-based
# [3] = cytotoxicity in OVCAR8 ovarian cancer cells, dose response, PAX8 project, cell-based, plate reader, dry powder samples (AID 743197); type: functional; settings: OVCAR-8
# Paired box protein Pax-8 = Paired box protein Pax-8 (Homo sapiens, UniProt Q06710); assay: inhibitors of PAX8-driven TPO luciferase reporter, dose response, RMG-I cells, cherry-pick (AID 687027); type: functional, cell-based;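 note: luciferase reporter driven by Pax8 target thyroperoxidase promoter measured by SteadyGlo luminescence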
# [4] = off-target signal loss in HeLa-CEM21 co-culture – HeLa F-luc CTL cells, cherry-picked, counter-screen for HIV-1 Env fusion inhibitor project, dose response (AID 652040); type: functional, cell-based;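 note: potency for signal decrease marking cytotoxic or nonspecific inhibition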
# [5] = cytotoxicity toward NIH3T3 fibroblasts, dose response, counter-screen, cell-based, ATP luminescence, mouse fibroblasts (AID 2010); type: functional;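 note: cells exposed to compound for about 90 hours before reading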
# [6] = CEM21 lymphoblast cell cytotoxicity, dose response, cytotoxicity control for viral fusion inhibitor project, CellTiter-Glo luminescence, cherry-picked (AID 652042); type: functional, cell-based;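 note: potency for signal decrease meaning cytotoxicity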
# [7] = inhibitors of HIV Env-driven cell fusion, dose response, cherry-pick (AID 652057); type: functional, cell-based
# [8] = inhibitors of clade B AD8 Env fusion, dose response, cell-based, cherry-pick (AID 652062); type: functional;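 note: luciferase signal from cell-cell fusion driven by HIV-1 clade B AD8 Env; potency is for inhibitors of fusion seen as a drop in luminescence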
# [9] = target: T1, Heat shock factor protein 1 (Mus musculus, UniProt P38532); assay: HSF1 potentiators in luciferase reporter cells, confirmation, cell-based, NIH3T3, luminescence, dose retest (AID 435004); type: functional;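 note: stress induced by proteasome inhibitor MG132 added 30 min after compound; luciferase reporter driven by HSF1 response element in NIH3T3 cells; actives raise luminescence as potentiators of the MG132 stress response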
# T1 sequence (P38532 whole entry): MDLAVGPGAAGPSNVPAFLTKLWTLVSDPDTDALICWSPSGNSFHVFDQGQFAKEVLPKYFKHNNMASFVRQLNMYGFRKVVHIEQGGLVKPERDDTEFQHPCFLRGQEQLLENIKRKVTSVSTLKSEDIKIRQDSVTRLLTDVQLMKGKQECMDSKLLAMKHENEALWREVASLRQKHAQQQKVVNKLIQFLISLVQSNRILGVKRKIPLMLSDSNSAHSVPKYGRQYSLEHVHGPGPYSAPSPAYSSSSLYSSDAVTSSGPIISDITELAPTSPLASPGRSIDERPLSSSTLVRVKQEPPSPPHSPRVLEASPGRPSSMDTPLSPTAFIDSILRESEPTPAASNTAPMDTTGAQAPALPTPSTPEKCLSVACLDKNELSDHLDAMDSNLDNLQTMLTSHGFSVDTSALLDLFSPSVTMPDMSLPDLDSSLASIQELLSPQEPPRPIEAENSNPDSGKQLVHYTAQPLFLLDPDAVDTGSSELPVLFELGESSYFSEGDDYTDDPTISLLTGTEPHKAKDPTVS
# [10] = ZM109 Env clade C HIV-1 fusion inhibitors, dose response, HeLa effector, CEM target cells, luciferase, cherry-pick (AID 652058); type: functional, cell-based
# [11] = inhibitors of intracellular T. cruzi replication, confirmation, NIH3T3 host cells, beta-gal luminescence (AID 2044); type: functional, cell-based;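 note: intracellular parasites grown in NIH/3T3 mouse fibroblasts as host cells; luminescent beta-galactosidase reporter signal from transgenic T. cruzi replicating inside host cells; inhibitors lower the luminescence signal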
# [12] = target: T2, Acyl-homoserine lactone acylase PvdQ (Pseudomonas aeruginosa (strain LESB58), UniProt Q9I194); assay: P. aeruginosa PvdQ acylase inhibitors, dose response, biochemical, fluorescence, plate reader and imaging, cherry-picks (AID 493231)
# T2 sequence (Q9I194 whole entry): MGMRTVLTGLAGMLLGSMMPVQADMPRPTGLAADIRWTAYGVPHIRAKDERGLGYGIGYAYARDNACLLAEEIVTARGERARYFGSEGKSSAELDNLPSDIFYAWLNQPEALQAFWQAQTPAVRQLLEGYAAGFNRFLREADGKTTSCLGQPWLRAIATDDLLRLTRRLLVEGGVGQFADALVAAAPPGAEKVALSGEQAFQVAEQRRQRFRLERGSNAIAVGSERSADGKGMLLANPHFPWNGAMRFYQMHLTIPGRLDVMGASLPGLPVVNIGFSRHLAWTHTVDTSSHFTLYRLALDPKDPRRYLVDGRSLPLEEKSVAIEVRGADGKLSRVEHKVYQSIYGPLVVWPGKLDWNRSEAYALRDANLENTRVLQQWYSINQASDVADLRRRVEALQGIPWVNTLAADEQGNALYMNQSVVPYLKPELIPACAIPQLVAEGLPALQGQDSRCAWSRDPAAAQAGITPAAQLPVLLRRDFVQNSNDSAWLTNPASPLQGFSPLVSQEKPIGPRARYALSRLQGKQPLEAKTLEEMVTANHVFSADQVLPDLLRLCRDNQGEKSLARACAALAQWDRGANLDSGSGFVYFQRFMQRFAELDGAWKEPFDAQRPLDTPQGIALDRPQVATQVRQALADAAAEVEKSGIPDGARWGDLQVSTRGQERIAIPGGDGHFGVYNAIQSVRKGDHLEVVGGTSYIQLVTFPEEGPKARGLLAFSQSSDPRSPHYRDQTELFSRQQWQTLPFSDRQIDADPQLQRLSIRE
# [13] = inhibitors of Vif binding to APOBEC3G peptide, primary screen, biochemical, TR-FRET, GST-Vif 1-94, biotin-A3G peptide, dose response retest (AID 1117319); type: functional;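 note: TR-FRET signal of purified GST-Vif binding a biotinylated A3G peptide; inhibitors lower the FRET signal by blocking Vif and A3G binding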
# [14] = Luminescence Cell-Based Dose Confirmation HTS to Identify Inhibitors of Platelet Dense Granule Release. [Related pubchem assays: 1663 (Primary HTS), 1678 (Summary of Project)]; type: functional
# [15] = target: Luciferin 4-monooxygenase (Photinus pyralis, UniProt P08659); assay: firefly luciferase enzyme inhibitors, dose response, biochemical, luminescence (AID 1891)
# [16] = P. falciparum Dd2 growth inhibitors, dose response, SYBR Green, cherry-picked samples (AID 1159567); type: functional, cell-based
# [17] = Luminescence Cell-Based Dose Retest to Confirm Inhibitors of Cancer Stem Cells. [Related pubchem assays (depositor defined):AID2717, AID2721]; type: functional; settings: Homo sapiens
# [18] = target: Heat shock protein HSP 90-alpha (Homo sapiens, UniProt P07900); type: functional, organism-based
# [19] = non-specific cell cytotoxicity, dose response, cytotoxicity control for PAX8 inhibitor project, plate reader, dry powder samples (AID 743021); type: functional, cell-based
# [20] = microbe, parasite or virus in culture; type: functional; settings: Mycobacterium tuberculosis
# [21] = CRF-BP/CRF-R2 complex antagonists, dose response, cell-based, uHTS hits, 384-well (AID 651639); type: functional, Homo sapiens; settings: read-out: IC50_Mean
# [22] = target: T3, Corticotropin-releasing factor receptor 2/Corticotropin-releasing factor-binding protein (Homo sapiens, UniProt P24387+Q13324); assay: Dose Response confirmation of uHTS hits for small molecule antagonists of the CRF-binding protein and CRF-R2 receptor complex.; type: functional; settings: read-out: IC50_Mean
# T3 sequence (Q13324 whole entry): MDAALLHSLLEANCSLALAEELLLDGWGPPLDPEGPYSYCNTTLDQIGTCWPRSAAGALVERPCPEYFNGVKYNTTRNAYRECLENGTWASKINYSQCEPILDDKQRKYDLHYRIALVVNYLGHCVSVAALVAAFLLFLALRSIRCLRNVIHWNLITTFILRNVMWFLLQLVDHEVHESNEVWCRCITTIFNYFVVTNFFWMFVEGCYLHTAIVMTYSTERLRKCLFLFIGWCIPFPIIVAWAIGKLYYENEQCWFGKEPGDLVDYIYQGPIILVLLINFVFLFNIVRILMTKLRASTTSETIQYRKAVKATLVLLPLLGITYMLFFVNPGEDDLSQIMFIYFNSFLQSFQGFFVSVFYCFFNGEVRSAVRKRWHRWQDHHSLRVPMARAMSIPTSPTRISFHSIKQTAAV
# T3 sequence (P24387 whole entry): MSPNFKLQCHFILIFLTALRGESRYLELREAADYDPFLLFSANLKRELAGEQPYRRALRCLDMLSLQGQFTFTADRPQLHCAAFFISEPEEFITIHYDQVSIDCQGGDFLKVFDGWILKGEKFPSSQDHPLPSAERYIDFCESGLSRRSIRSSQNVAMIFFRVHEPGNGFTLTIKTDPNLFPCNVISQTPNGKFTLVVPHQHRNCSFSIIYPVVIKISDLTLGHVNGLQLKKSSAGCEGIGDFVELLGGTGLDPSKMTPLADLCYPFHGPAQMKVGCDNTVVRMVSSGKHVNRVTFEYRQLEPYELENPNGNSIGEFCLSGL
# [23] = target: T3, Corticotropin-releasing factor receptor 2/Corticotropin-releasing factor-binding protein; assay: activators of CRF receptor 2 with binding protein – uHTS hits, confirmation (AID 602473); type: functional; settings: read-out: EC50_Mean
# [24] = cytotoxicity in HEK-293T cells, dose response, cytotoxicity control for BCR NF-kB inhibitor project, luminescence, B-cell screen hits (AID 489021); type: functional, cell-based;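 note: HEK-293T cells carrying an NF-kB luciferase reporter; cells exposed to compound for about 14 hours before viability readout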
# Chain of Paired box protein Pax-8 (Q06710 whole entry, the tested form may be a part): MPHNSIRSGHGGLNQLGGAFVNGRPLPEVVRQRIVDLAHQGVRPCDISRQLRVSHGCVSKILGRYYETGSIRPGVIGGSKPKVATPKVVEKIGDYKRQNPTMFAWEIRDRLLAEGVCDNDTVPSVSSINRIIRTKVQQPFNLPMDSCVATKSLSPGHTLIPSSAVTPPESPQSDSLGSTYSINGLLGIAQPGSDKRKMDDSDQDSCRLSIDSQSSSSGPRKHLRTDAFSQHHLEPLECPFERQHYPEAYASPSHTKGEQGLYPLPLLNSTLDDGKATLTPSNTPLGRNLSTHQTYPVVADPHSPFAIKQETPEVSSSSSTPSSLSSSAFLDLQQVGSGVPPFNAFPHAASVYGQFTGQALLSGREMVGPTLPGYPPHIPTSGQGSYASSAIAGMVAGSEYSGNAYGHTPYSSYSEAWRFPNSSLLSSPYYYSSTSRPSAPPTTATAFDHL
# Chain of Luciferin 4-monooxygenase (P08659 whole entry): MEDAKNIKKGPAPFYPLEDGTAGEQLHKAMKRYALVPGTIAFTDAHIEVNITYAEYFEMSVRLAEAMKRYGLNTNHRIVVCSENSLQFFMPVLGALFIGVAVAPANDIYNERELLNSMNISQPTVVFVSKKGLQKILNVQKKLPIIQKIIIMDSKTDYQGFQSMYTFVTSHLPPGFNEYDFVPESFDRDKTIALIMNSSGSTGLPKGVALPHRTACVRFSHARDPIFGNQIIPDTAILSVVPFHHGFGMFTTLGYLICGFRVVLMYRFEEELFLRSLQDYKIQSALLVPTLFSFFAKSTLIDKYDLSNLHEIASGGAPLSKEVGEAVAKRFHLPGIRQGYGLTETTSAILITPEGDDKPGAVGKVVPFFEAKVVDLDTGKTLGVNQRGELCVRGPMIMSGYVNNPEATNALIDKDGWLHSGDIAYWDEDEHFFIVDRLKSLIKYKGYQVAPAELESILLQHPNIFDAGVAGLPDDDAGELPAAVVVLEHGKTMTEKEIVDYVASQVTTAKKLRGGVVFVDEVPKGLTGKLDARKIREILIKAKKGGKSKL
smiles,measurement,setting,value
O=C(CSc1nnnn1-c1ccc2c(c1)CCC2)Nc1ccc2c(c1)OCCO2,CC50,[1],> 40 µM (active)
C[C@@H]1CN([C@H](C)CO)C(=O)c2cc(NC(=O)Nc3ccc(F)cc3)ccc2O[C@@H](C)CCCCO[C@@H]1CN(C)Cc1ccc(Cl)c(Cl)c1,AC50,[2],20 µM (active)
same,AC50,[3],38.7 µM (active)
same,AC50,Paired box protein Pax-8,8.1 µM (active)
Cc1ccc(C(C(=O)NC2CCCCC2)N(C(=O)Cc2c[nH]c3ccccc23)c2ccccc2)o1 (configuration not stated),AC50,[4],10.3 µM (active)
same,EC50,[5],> 60 µM (not active)
same,AC50,[6],47.4 µM (active)
same,AC50,[7],4.14 µM (active)
same,AC50,[8],6.79 µM (active)
same,EC50,[9],> 260 µM (inactive)
same,AC50,[10],2.63 µM (active)
same,EC50,[11],1.6 µM (active)
CC(C)Oc1ccc(Nc2ncnc3ccccc23)cc1,AC50,[12],16.3 µM (active)
COc1ccc(-c2[nH]c(-c3ccc(C)cc3)nc2SCC(=O)NCc2ccco2)cc1OC,IC50,[13],> 100 µM (active)
O=C(NC(=O)c1ccccc1)Nc1ccccn1,EC50,[14],2.1 µM (active)
same,EC50,[15],4.17 µM (active)
same,AC50,[4],9.35 µM (active)
same,AC50,[6],39.1 µM (active)
same,AC50,[7],2.44 µM (active)
same,AC50,[8],6.09 µM (active)
same,AC50,[10],37.7 µM (active)
C[C@H](CO)N1C[C@H](C)[C@H](CN(C)S(=O)(=O)c2ccccc2)Oc2cc(C#Cc3ccncc3)ccc2S1(=O)=O,AC50,[16],6.63 µM (active)
CCc1ccc(-c2cc(C(=O)N3N=C(C(F)F)CC3(O)C(F)F)c3ccccc3n2)cc1 (configuration not stated),EC50,[5],> 60 µM (not active)
same,AC50,[17],5.74 µM (active)
same,AC50,[18],4.04 µM (active)
same,EC50,[11],2.9 µM (active)
O=C1NC(=O)N(Cc2ccco2)C(=O)/C1=C/NCc1ccc2c(c1)OCO2,IC50,[13],> 100 µM (active)
COC(=O)C1=C(SC)N(c2ccccc2)C(c2ccccc2)CC1=O (configuration not stated),AC50,Paired box protein Pax-8,54.1 µM (active)
same,AC50,[19],62 µM (active)
C[C@H](CO)N1C[C@H](C)[C@H](CN(C)Cc2ccc(F)cc2)OCc2ccccc2-c2ccccc2C1=O,AC50,[7],0.557 µM (active)
same,AC50,[8],3.77 µM (active)
same,AC50,[10],1.39 µM (active)
O=S(=O)(c1ccccc1)N1CC[C@@H]2[C@H](CO)Nc3ccc(C#CC4CCCCC4)cc3[C@@H]21,AC50,[16],6.42 µM (active)
Cc1nc2ccccc2n1CC(=O)NCc1ccccc1,AC50,[4],> 70 µM (inactive)
same,AC50,[8],16.8 µM (active)
O=S(=O)(c1ccc(Cl)cc1)N1CCC(n2cnc3cc(C(F)(F)F)ccc32)CC1,EC50,[5],> 60 µM (not active)
same,AC50,[17],0.552 µM (active)
same,EC50,[11],2.04 µM (active)
same,CC50,[20],> 40 µM (active)
CC(=O)C1=C(C)NC(SCC(=O)c2ccc(F)cc2)=C(C#N)C1c1ccco1 (configuration not stated),CC50,[20],39.2 µM (active)
CC(=O)N(C(C)=O)c1cccc(N(Cc2ccccc2)Cc2ccccc2)c1,IC50,[21],> 20 µM (inactive)
same,IC50,[22],5.83 µM (active)
same,EC50,[23],> 53 µM (inactive)
CCCc1ccc(C2=Nn3c(nnc3C(C)C)SC2)cc1,CC50,[20],> 40 µM (active)
COc1ccc(/N=c2\scc(-c3ccc(OC)cc3)n2CCO)cc1,IC50,[13],> 100 µM (active)
same,CC50,[1],28.5 µM (active)
O=C1c2ccccc2C(Nc2ccc(F)c(Cl)c2)N1c1ccccn1 (configuration not stated),IC50,[13],> 100 µM (active)
CCCOc1ccc(NC(=O)C(=O)NCCCn2ccnc2)cc1,IC50,[24],> 80 µM (inactive)
O=C(Cc1ccccc1)N[C@@H]1C=C[C@H](CC(=O)N2CCCCC2)O[C@@H]1CO,AC50,[10],28.7 µM (active)
Cc1ccc2nc(-c3ccncc3)cc(-c3ccccc3)c2c1,CC50,[20],> 40 µM (active)
Cc1ccc2c(c1C)NC(=O)C2(O)CC(=O)c1ccc2c(c1)OCO2 (configuration not stated),IC50,[13],> 100 µM (active)
COc1cccc2ccc(CC(O)(c3ccccc3)c3ccccc3)nc12,IC50,[21],> 20 µM (inactive)
same,IC50,[22],< 0.368 µM (active)
same,EC50,[23],> 53 µM (inactive)
CCN(CC)S(=O)(=O)c1ccc(Cl)c(NC(=O)c2cc(Cl)cc(Cl)c2)c1,IC50,[21],> 20 µM (inactive)
same,IC50,[22],3.26 µM (active)
same,EC50,[23],> 53 µM (inactive)
CC(C)(C)c1ccc(C(=O)N2CCN(CCNC(=O)C(=O)NCc3ccc(Cl)cc3)CC2)cc1,EC50,[5],> 30 µM (not active)
same,EC50,[11],3.43 µM (active)
same,CC50,[20],> 40 µM (active)
O=C1OC(c2ccccc2)c2ccccc21 (configuration not stated),AC50,[12],97.9 µM (active)
CO[C@@H]1CN(C)C(=O)c2ccc(NC(=O)Nc3cc(Cl)cc(Cl)c3)cc2OC[C@H](C)NC[C@H]1C,AC50,[16],6.54 µM (active)
O=C(c1cnccn1)N1CC(=O)N2[C@@H](CO)[C@@H](c3ccc(C#CCc4ccccc4)cc3)[C@@H]2C1,AC50,[16],15.7 µM (active)
Clc1ccc2scc(CN3CCCCC3)c2c1,AC50,[12],9.4 µM (active)
COc1ccc([N+](=O)[O-])cc1NCc1ccccc1,IC50,[21],14.5 µM (active)
same,IC50,[22],12 µM (active)
same,EC50,[23],> 53 µM (inactive)
